Laboratory results as given in patent publication US4421912A, “Cephalosporin derivatives” (Takeda Chemical Industries, Ltd., priority 1973, dated 1983).
Converted amounts (≈) assume the structure as drawn. Like-named read-outs stand apart in the source and are kept apart here.

Assays:
Experiment in all cases: Antibacterial spectra, agar dilution method
Assay type in all cases: cell-based
E. coli 0-111 = test system: E. coli 0-111
Excerpt: (§1) (mcg/ml., agar dilution method)
as §1
(§2) (mcg/ml, agar dilution method)
(§3) (mcg./ml., agar dilution method)

E. coli NIHJ JC-2 = details: Escherichia coli
Excerpt: as §1, §1, §2, §3

S. aureus 1840 = test system: S. aureus 1840
Excerpt: as §1, §1, §2, §3

S. aureus 209P = details: for MIC: Staphylococcus aureus, 209P
Excerpt: as §1, §1, §2, §3

E. coli T-7 = details: Escherichia coli
Excerpt: (§4) |(mcg./ml., agar dilution method)

P. vulgaris IFO 3988 = details: Proteus vulgaris, IFO3988; P. vulgaris IFO 3988; agar dilution method; Table 11; read-out: Antibacterial spectra
Excerpt: as §4

K. pneumoniae DT = details: Klebsiella pneumoniae
P. morganii Eb53 = details: Morganella morganii
Excerpt: as §2, §3

[1] = Escherichia coli, 0111, E. coli 0-111, Table 11
[2] = NIHJJC2, E. coli NIHJ JC-2, Table 11, read-out: Antibacterial spectra
[3] = Staphylococcus aureus, 1840, read-out: Antibacterial spectra, S. aureus 1840, Table 11
[4] = read-out: Antibacterial spectra, S. aureus 209P, Table 11
[5] = T7, E. coli T-7, agar dilution method, Table 11, read-out: Antibacterial spectra
[6] = P. morganii Eb53, agar dilution method, Table 11, read-out: Antibacterial spectra
[7] = NIHJJC2, read-out: Antibacterial spectra, E. coli NIHJ JC-2, Table 11
[8] = T7, read-out: Antibacterial spectra
[9] = Escherichia coli, 0111, E. coli 0-111, tables in the Examples
[10] = Staphylococcus aureus, 1840, read-out: Antibacterial spectra, S. aureus 1840, tables in the Examples
[11] = read-out: Antibacterial spectra, S. aureus 209P, tables in the Examples
[12] = EB53, read-out: Antibacterial spectra

Structure (SMILES): Nc1nc(CC(=O)NC2C(=O)N3C(C(=O)O)=C(CSc4nc(CC(=O)O)cs4)CSC23)cs1 (centres unmarked) [Compound 30]
- MIC (E. coli 0-111; [1]): 0.39 µg/mL (≈ 0.739 µM)
- MIC (E. coli NIHJ JC-2; [2]): 1.56 µg/mL (≈ 2.96 µM)
- MIC (S. aureus 1840; [3]): 1.56 µg/mL (≈ 2.96 µM)
- MIC (S. aureus 209P; [4]): 0.39 µg/mL (≈ 0.739 µM)
- MIC (E. coli T-7; [5]): 100 µg/mL (≈ 190 µM)
- MIC (P. vulgaris IFO 3988): 0.2 µg/mL (≈ 0.379 µM)
- MIC (K. pneumoniae DT; Table 11): < 0.05 µg/mL
- MIC (P. morganii Eb53; [6]): 50 µg/mL (≈ 94.8 µM)

Structure (SMILES): CC(=O)OCC1=C(C(=O)[O-])N2C(=O)C(NC(=O)Cc3csc(=S)[nH]3)[C@H]2SC1.[Na+] (some centres unmarked) [Example 21, sodium 7-[2-(2-thioxo-4-thiazolin-4-yl)-acetamido]-3-acetoxymethyl-3-cephem-4-carboxylate]
- Antibacterial spectra (S. aureus 1840; S. aureus 1840, tables in the Examples): 1.56 µg/mL
- Antibacterial spectra (S. aureus 209P; S. aureus 209P, tables in the Examples): < 0.78 µg/mL

Structure (SMILES): Cn1ccnc1SCC1=C(C(=O)O)N2C(=O)C(NC(=O)Cc3csc(N)n3)C2SC1 (centres unmarked) [Compound 44]
- MIC (E. coli 0-111; [1]): 0.39 µg/mL (≈ 0.836 µM)
- MIC (E. coli NIHJ JC-2; [7]): 0.78 µg/mL (≈ 1.67 µM)
- MIC (S. aureus 1840; [3]): 1.56 µg/mL (≈ 3.34 µM)
- MIC (S. aureus 209P; [4]): 0.39 µg/mL (≈ 0.836 µM)
- MIC (E. coli T-7; [8]): 6.25 µg/mL (≈ 13.4 µM)
- MIC (P. vulgaris IFO 3988): 0.39 µg/mL (≈ 0.836 µM)
- MIC (K. pneumoniae DT; Table 11): 0.39 µg/mL (≈ 0.836 µM)

Structure (SMILES): O=C(Cc1csc(=O)[nH]1)NC1C(=O)N2C(C(=O)O)=C(CSc3nncs3)CS[C@H]12 (some centres unmarked) [Example 4, 7-[2-(2-oxo-4-thiazolin-4-yl)acetamido]-3-(1,3,4-thiadiazol-2-yl)thiomethyl-3-cephem-4-carboxylic acid]
- MIC (E. coli 0-111; [9]): 1.56 µg/mL (≈ 3.31 µM)
- MIC (S. aureus 1840; [10]): < 0.78 µg/mL
- MIC (S. aureus 209P; [11]): < 0.78 µg/mL
- MIC (K. pneumoniae DT; tables in the Examples): 1.56 µg/mL (≈ 3.31 µM)

Structure (SMILES): CS(=O)(=O)Cc1nnc(SCC2=C(C(=O)O)N3C(=O)C(NC(=O)Cc4csc(N)n4)C3SC2)s1 (centres unmarked) [Compound 25]
- MIC (E. coli 0-111; [1]): ≤ 0.2 µg/mL
- MIC (E. coli NIHJ JC-2; [7]): 0.39 µg/mL (≈ 0.693 µM)
- MIC (S. aureus 1840; [3]): 0.78 µg/mL (≈ 1.39 µM)
- MIC (S. aureus 209P; [4]): 0.39 µg/mL (≈ 0.693 µM)
- MIC (E. coli T-7; [5]): 100 µg/mL (≈ 178 µM)
- MIC (P. vulgaris IFO 3988): 0.39 µg/mL (≈ 0.693 µM)
- MIC (K. pneumoniae DT; Table 11): ≤ 0.2 µg/mL
- MIC (P. morganii Eb53; [6]): 25 µg/mL (≈ 44.4 µM)

Structure (SMILES): Nc1nc(CC(=O)NC2C(=O)N3C(C(=O)[O-])=C(CSc4nnc(SCCO)s4)CS[C@H]23)cs1.[Na+] (some centres unmarked) [Compound 6, sodium 7-[2-(2-aminothiazol-4-yl)acetamido]-3-[2-(2-hydroxyethylthio)1,3,4-thiadiazol-5-yl)thiomethyl-3-cephem-4-carboxylate]
- MIC (E. coli 0-111; [1]): ≤ 0.2 µg/mL
- MIC (E. coli NIHJ JC-2; [7]): 0.78 µg/mL
- MIC (S. aureus 1840; [3]): 0.78 µg/mL
- MIC (S. aureus 209P; [4]): ≤ 0.2 µg/mL
- MIC (E. coli T-7; [8]): 12.5 µg/mL
- MIC (P. vulgaris IFO 3988): 0.39 µg/mL
- MIC (K. pneumoniae DT; Table 11): ≤ 0.2 µg/mL
- MIC (P. morganii Eb53; [12]): 6.25 µg/mL

Structure (SMILES): NC(=O)Cn1nnnc1SCC1=C(C(=O)O)N2C(=O)C(NC(=O)Cc3csc(N)n3)C2SC1 (centres unmarked) [Compound 29]
- MIC (E. coli 0-111; [1]): ≤ 0.2 µg/mL
- MIC (E. coli NIHJ JC-2; [7]): 0.39 µg/mL (≈ 0.762 µM)
- MIC (S. aureus 1840; [3]): 1.56 µg/mL (≈ 3.05 µM)
- MIC (S. aureus 209P; [4]): 0.78 µg/mL (≈ 1.52 µM)
- MIC (E. coli T-7; [5]): 3.13 µg/mL (≈ 6.12 µM)
- MIC (P. vulgaris IFO 3988): ≤ 0.2 µg/mL
- MIC (K. pneumoniae DT; Table 11): ≤ 0.2 µg/mL
- MIC (P. morganii Eb53; [12]): ≤ 0.2 µg/mL

Structure (SMILES): Cn1nnnc1SCC1=C(C(=O)O)N2C(=O)C(NC(=O)Cc3csc(=O)[nH]3)[C@H]2SC1 (some centres unmarked) [Example 2, 7-[2-(2-oxo-4-thiazolin-4-yl)acetamido]-3-(1-methyltetrazol-5-yl)thiomethyl-3-cephem-4-carboxylic acid]
- MIC (E. coli 0-111; [9]): < 0.78 µg/mL
- MIC (E. coli NIHJ JC-2; NIHJJC2, read-out: Antibacterial spectra, E. coli NIHJ JC-2, tables in the Examples): < 0.78 µg/mL
- MIC (S. aureus 1840; [10]): < 0.78 µg/mL
- MIC (S. aureus 209P; [11]): < 0.78 µg/mL
- MIC (K. pneumoniae DT; tables in the Examples): < 0.78 µg/mL

Structure (SMILES): Nc1nc(CC(=O)NC2C(=O)N3C(C(=O)O)=C(CSc4nnc(C(F)(F)F)s4)CSC23)cs1 (centres unmarked) [Compound 45]
- MIC (E. coli 0-111; [1]): 0.78 µg/mL (≈ 1.45 µM)
- MIC (E. coli NIHJ JC-2; [2]): 3.13 µg/mL (≈ 5.81 µM)
- MIC (S. aureus 1840; [3]): 0.78 µg/mL (≈ 1.45 µM)
- MIC (S. aureus 209P; [4]): ≤ 0.2 µg/mL
- MIC (E. coli T-7; [5]): 25 µg/mL (≈ 46.4 µM)
- MIC (P. vulgaris IFO 3988): 0.78 µg/mL (≈ 1.45 µM)
- MIC (K. pneumoniae DT; Table 11): 0.78 µg/mL (≈ 1.45 µM)

Structure (SMILES): Cc1cnc(SCC2=C(C(=O)O)N3C(=O)C(NC(=O)Cc4csc(N)n4)C3SC2)nc1N (centres unmarked) [Compound 32]
- MIC (E. coli 0-111; [1]): 0.78 µg/mL (≈ 1.58 µM)
- MIC (E. coli NIHJ JC-2; [2]): 1.56 µg/mL (≈ 3.16 µM)
- MIC (S. aureus 1840; [3]): 1.56 µg/mL (≈ 3.16 µM)
- MIC (S. aureus 209P; [4]): 0.2 µg/mL (≈ 0.405 µM)
- MIC (E. coli T-7; [5]): 50 µg/mL (≈ 101 µM)
- MIC (P. vulgaris IFO 3988): 0.78 µg/mL (≈ 1.58 µM)
- MIC (K. pneumoniae DT; Table 11): 0.39 µg/mL (≈ 0.79 µM)
- MIC (P. morganii Eb53; [6]): 100 µg/mL (≈ 203 µM)

Structure (SMILES): CSCc1nnc(SCC2=C(C(=O)O)N3C(=O)C(NC(=O)Cc4csc(N)n4)C3SC2)s1 (centres unmarked) [Compound 24]
- MIC (E. coli 0-111; [1]): 0.39 µg/mL (≈ 0.735 µM)
- MIC (E. coli NIHJ JC-2; [2]): 1.56 µg/mL (≈ 2.94 µM)
- MIC (S. aureus 1840; [3]): 0.78 µg/mL (≈ 1.47 µM)
- MIC (S. aureus 209P; [4]): ≤ 0.2 µg/mL
- MIC (E. coli T-7; [5]): 25 µg/mL (≈ 47.1 µM)
- MIC (P. vulgaris IFO 3988): 0.39 µg/mL (≈ 0.735 µM)
- MIC (K. pneumoniae DT; Table 11): ≤ 0.2 µg/mL
- MIC (P. morganii Eb53; [6]): 25 µg/mL (≈ 47.1 µM)

Structure (SMILES): Cc1csc(SCC2=C(C(=O)O)N3C(=O)C(NC(=O)Cc4csc(N)n4)C3SC2)n1 (centres unmarked) [Compound 47]
- MIC (E. coli 0-111; [1]): 0.78 µg/mL (≈ 1.61 µM)
- MIC (E. coli NIHJ JC-2; [2]): 1.56 µg/mL (≈ 3.23 µM)
- MIC (S. aureus 1840; [3]): 0.78 µg/mL (≈ 1.61 µM)
- MIC (S. aureus 209P; [4]): ≤ 0.2 µg/mL
- MIC (E. coli T-7; [8]): 12.5 µg/mL (≈ 25.8 µM)
- MIC (P. vulgaris IFO 3988): 0.39 µg/mL (≈ 0.806 µM)
- MIC (K. pneumoniae DT; Table 11): 0.39 µg/mL (≈ 0.806 µM)
